Drawing on patent US20230203043A1, “NOVEL IMIDAZOPYRAZINE DERIVATIVES” (Hoffmann-La Roche Inc., priority 2020, published 2023), this text covers IC90 for 18 compounds.

Where a name gives a salt, the structure may show the parent alone.

The first experiment concerns Acinetobacter baumannii ATCC17961. In words: Antimicrobial susceptibility testing: 90% growth inhibitory concentration (IC90) determination in Iso-Sensitest broth, OD600 growth. Type of experiment: cell-based. Conditions: Acinetobacter baumannii, ATCC17961, 16 h, read-out: A. baumannii ATCC 17961 IC90 (uM), strain ATCC 17961, OD600 growth over 16 h. The gist of the method:
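OD600 read every 20 min for 16 h at 35±2° C; inhibition taken in log phase to derive IC90. Twofold, 10-point dilutions (e.g. 50–0.097 μM final), inoculum ~5×10^(5) CFU/ml.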
`CCc1cc(Nc2nccn3c(-c4cn(CC5CCC5)nc4C(F)(F)F)cnc23)ccc1C(=O)NCCOCCN` [Example 303, N-[2-(2-aminoethoxy)ethyl]-4-[[3-[1-(cyclobutylmethyl)-3-(trifluoromethyl)pyrazol-4-yl]imidazo[1,2-a]pyrazin-8-yl]amino]-2-ethylbenzamide formate]: the concentration for an effect of 90% (IC90) amounted to 0.201 µM.
Still for that read-out and setting: the same measure for `N#CCCn1cc(-c2cnc3c(Nc4ccc(C(=O)N5CCN(C(=O)N[C@H]6CCNC6)CC5)c(Cl)c4)nccn23)c(C(F)(F)F)n1` [Example 259, 4-[2-chloro-4-[[3-[1-(2-cyanoethyl)-3-(trifluoromethyl)pyrazol-4-yl]imidazo[1,2-a]pyrazin-8-yl]amino]benzoyl]-N-[(3S)-pyrrolidin-3-yl]piperazine-1-carboxamide formate]: 0.463 µM.
Regarding `N[C@H]1CCN(C(=O)N2CCN(C(=O)c3ccc(Nc4nccn5c(-c6c[nH]nc6C(F)(F)F)cnc45)cc3Cl)CC2)C1` [Example 328, [4-[(3S)-3-aminopyrrolidine-1-carbonyl]piperazin-1-yl]-[2-chloro-4-[[3-[3-(trifluoromethyl)-1H-pyrazol-4-yl]imidazo[1,2-a]pyrazin-8-yl]amino]phenyl]methanone formate], the IC90 came to 0.157 µM.
Still for that read-out and setting: the same measure for `CCc1cc(Nc2nccn3c(-c4cn(CC(F)F)nc4C(F)(F)F)cnc23)ccc1C(=O)NCC(=O)NCCN(C)C` [Example 668, 4-[[3-[1-(2,2-difluoroethyl)-3-(trifluoromethyl)pyrazol-4-yl]imidazo[1,2-a]pyrazin-8-yl]amino]-N-[2-[2-(dimethylamino)ethylamino]-2-oxo-ethyl]-2-ethyl-benzamide formate]: 0.294 µM; for `CCc1cc(Nc2nccn3c(-c4cn(CCC(C)C)nc4C(F)(F)F)cnc23)ccc1C(=O)NCCOCCN` [Example 28, N-[2-(2-aminoethoxy)ethyl]-2-ethyl-4-[[3-[1-(3-methylbutyl)-3-(trifluoromethyl)pyrazol-4-yl]imidazo[1,2-a]pyrazin-8-yl]amino]benzamide formate]: 0.369 µM.
Same read-out and setting: the same measure for `NCCCNC(=O)N1CCN(C(=O)c2ccc(Nc3nccn4c(-c5c[nH]nc5C(F)(F)F)cnc34)cc2Cl)CC1` [Example 390, N-(3-aminopropyl)-4-[2-chloro-4-[[3-[3-(trifluoromethyl)-1H-pyrazol-4-yl]imidazo[1,2-a]pyrazin-8-yl]amino]benzoyl]piperazine-1-carboxamide formate]: 0.177 µM.
For `N#CCn1cc(-c2cnc3c(Nc4ccc(C(=O)N5CCN(C(=O)CC6CCNCC6)CC5)c(Cl)c4)nccn23)c(C(F)(F)F)n1` [Example 572, 2-(4-(8-((3-chloro-4-(4-(2-(piperidin-4-yl)acetyl)piperazine-1-carbonyl)phenyl)amino)imidazo[1,2-a]pyrazin-3-yl)-3-(trifluoromethyl)-1H-pyrazol-1-yl)acetonitrile formate], the IC90 was found to be 0.291 µM.
For `CCc1cc(Nc2nccn3c(-c4cn(CC(F)F)nc4C(F)(F)F)cnc23)ccc1C(=O)NCC(=O)N1CC2(CNC2)C1` [Example 526, N-[2-(2,6-diazaspiro[3.3]heptan-2-yl)-2-oxo-ethyl]-4-[[3-[1-(2,2-difluoroethyl)-3-(trifluoromethyl)pyrazol-4-yl]imidazo[1,2-a]pyrazin-8-yl]amino]-2-ethyl-benzamide formate], the IC90 was determined as 0.306 µM.

The same experiment, now with this note: Acinetobacter baumannii, ATCC17961, 16 h, strain ATCC 17961, OD600 growth over 16 h, read-out: A. baumannii ATCC 17961 IC90.
As to `C=CCn1cc(-c2cnc3c(Nc4ccc(C(=O)N[C@@H](C)CN)c(CC)c4)nccn23)c(C(F)(F)F)n1` [Example 63, N-[(2S)-1-aminopropan-2-yl]-2-ethyl-4-[[3-[1-prop-2-enyl-3-(trifluoromethyl)pyrazol-4-yl]imidazo[1,2-a]pyrazin-8-yl]amino]benzamide], the concentration for an effect of 90% (IC90) came to 0.27 µM.
Same read-out and setting: the same measure for `CCc1cc(Nc2nccn3c(-c4cn(CC#N)nc4C(F)(F)F)cnc23)ccc1C(=O)NCCNC(=O)N1CC[C@H](N)C1` [Example 577, (S)-3-amino-N-(2-(4-((3-(1-(cyanomethyl)-3-(trifluoromethyl)-1H-pyrazol-4-yl)imidazo[1,2-a]pyrazin-8-yl)amino)-2-ethylbenzamido)ethyl) pyrrolidine-1-carboxamide formate]: 0.395 µM; for `O=C(CC1CNC1)N1CCN(C(=O)c2ccc(Nc3nccn4c(-c5c[nH]nc5C(F)(F)F)cnc34)cc2Cl)CC1` [Example 133, 2-(azetidin-3-yl)-1-[4-[2-chloro-4-[[3-[3-(trifluoromethyl)-1H-pyrazol-4-yl]imidazo[1,2-a]pyrazin-8-yl]amino]benzoyl]piperazin-1-yl]ethanone]: 0.322 µM; for `C#CCNC(=O)c1c(C)cc(Nc2nccn3c(-c4cn(CC#N)nc4C(F)(F)F)cnc23)cc1F` [Example 4, 4-[[3-[1-(cyanomethyl)-3-(trifluoromethyl)pyrazol-4-yl]imidazo[1,2-a]pyrazin-8-yl]amino]-2-fluoro-6-methyl-N-prop-2-ynylbenzamide]: 0.132 µM.
On the same count and under the same terms, the same measure for `CCc1cc(Nc2nccn3c(-c4cn(CC#N)nc4C(F)(F)F)cnc23)ccc1C(=O)N[C@H](C)CN` [Example 109, N-[(2R)-1-aminopropan-2-yl]-4-[[3-[1-(cyanomethyl)-3-(trifluoromethyl)pyrazol-4-yl]imidazo[1,2-a]pyrazin-8-yl]amino]-2-ethylbenzamide]: 0.333 µM; for `CCc1cc(Nc2nccn3c(-c4cn(CC#N)nc4C(F)(F)F)cnc23)ccc1C(=O)NCCCNC(=O)[C@H]1CC[C@@H](N)C1` [Example 484, N-(3-((1S,3R)-3-aminocyclopentane-1-carboxamido)propyl)-4-((3-(1-(cyanomethyl)-3-(trifluoromethyl)-1H-pyrazol-4-yl)imidazo[1,2-a]pyrazin-8-yl)amino)-2-ethylbenzamide formate]: 0.154 µM; for `CCc1cc(Nc2nccn3c(-c4c[nH]nc4C(F)(F)F)cnc23)ccc1C(=O)NCCNC(=O)[C@H]1CC[C@@H](N)C1` [Example 724, N-(2-((1S,3R)-3-aminocyclopentane-1-carboxamido)ethyl)-2-ethyl-4-((3-(3-(trifluoromethyl)-1H-pyrazol-4-yl)imidazo[1,2-a]pyrazin-8-yl)amino)benzamide]: 0.459 µM.
In the case of `CCc1cc(Nc2nccn3c(-c4cn(CC#N)nc4Cl)cnc23)ccc1C(=O)NCCOCCN` [Example 833, N-(2-(2-aminoethoxy)ethyl)-4-((3-(3-chloro-1-(cyanomethyl)-1H-pyrazol-4-yl)imidazo[1,2-α]pyrazin-8-yl)amino)-2-ethylbenzamide], the IC90 is 0.46 µM.
Still for that read-out and setting: the same measure for `O=C(NC1CC(NC(=O)[C@@H]2C[C@@H](O)CN2)C1)c1ccc(Nc2nccn3c(-c4c[nH]nc4C(F)(F)F)cnc23)cc1Cl` (stereo partly drawn) [Example 370, (2S,4R)-N-[3-[[2-chloro-4-[[3-[3-(trifluoromethyl)-1H-pyrazol-4-yl]imidazo[1,2-a]pyrazin-8-yl]amino]benzoyl]amino]cyclobutyl]-4-hydroxypyrrolidine-2-carboxamide]: 0.177 µM; for `C#CCn1cc(-c2cnc3c(Nc4ccc(C(=O)NCCOCCN)c(CC)c4)nccn23)c(C(F)F)n1` [Example 123, N-[2-(2-aminoethoxy)ethyl]-4-[[3-[3-(difluoromethyl)-1-prop-2-ynylpyrazol-4-yl]imidazo[1,2-a]pyrazin-8-yl]amino]-2-ethylbenzamide]: 0.209 µM.
